Measurements from the supplement of paper PMC10307832.

Key:
Test in all cases: relative viability (nuclei count vs DMSO), 5 days (fraction); higher = more cells survive
[1] = compound: C[C@]1(O)C[C@@H](c2nc(-c3ccc4ccc(-c5ccccc5)nc4c3)c3c(N)nccn32)C1 [Linsitinib] + COc1cc2c(Oc3ccc(NC(=O)C4(C(=O)Nc5ccc(F)cc5)CC4)cc3F)ccnc2cc1OCCCN1CCOCC1 [Foretinib] (partner 0.25 µM)
In short: (§1)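 A single step with final 0.05% Triton X-100, 1% formaldehyde and 1 ug/ml Hoechst fixed the cells and stained nuclei 5 days after treatment. Lung cancer cell lines in 1536-well plates had been treated by pin tool the day after seeding with one drug alone or a fixed anchor-drug dose plus five library-drug doses (not always all listed) in √10 steps, and nuclei were counted on 4× images. Relative viability is the ratio of nuclei in treated wells to nuclei in vehicle wells, taken as the median of duplicate plates.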

[2] = compound: C[C@]1(O)C[C@@H](c2nc(-c3ccc4ccc(-c5ccccc5)nc4c3)c3c(N)nccn32)C1 [Linsitinib] + NC(=O)Nc1cc(-c2cccc(F)c2)sc1C(=O)N[C@H]1CCCNC1 [AZD7762] (partner 0.2 µM)
In short: as §1

[3] = compound: Cc1ccc(C(=O)N(CCCN)[C@@H](c2nc3cc(Cl)ccc3c(=O)n2Cc2ccccc2)C(C)C)cc1 [Ispinesib] + N=C(N)NC(=N)NCCc1ccccc1 [Phenformin] (partner 250 µM)
In short: as §1

Row | Cell Line | relative viability ([1]; first compound 0.01 µM) | relative viability ([1]; first compound 0.03162 µM) | relative viability ([1]; first compound 0.1 µM) | relative viability ([1]; first compound 0.3162 µM) | relative viability ([1]; first compound 1 µM) | relative viability ([2]; first compound 0.01 µM) | relative viability ([2]; first compound 0.03162 µM) | relative viability ([2]; first compound 0.1 µM) | relative viability ([2]; first compound 0.3162 µM) | relative viability ([2]; first compound 1 µM) | relative viability ([3]; first compound 0.001 µM) | relative viability ([3]; first compound 0.003162 µM) | relative viability ([3]; first compound 0.01 µM) | relative viability ([3]; first compound 0.03162 µM) | relative viability ([3]; first compound 0.1 µM)
1 | LCLC-103H | 0.75 | 0.771 | 0.751 | 0.709 | 0.704 | 0.785 | 0.721 | 0.84 | 0.9 | 0.634 | 0.34 | 0.389 | 0.366 | 0.293 | 0.269
2 | LK-2 | 1.27 | 1.24 | 1.21 | 1.08 | 1.22 | 0.295 | 0.482 | 0.245 | 0.179 | 0.154 | 0.377 | 0.475 | 0.4 | 0.318 | 0.291
3 | LOU-NH91 | 0.953 | 0.939 | 0.879 | 0.926 | 0.842 | 0.763 | 0.701 | 0.742 | 0.693 | 0.58 | 0.708 | 0.753 | 0.774 | 0.563 | 0.262
4 | LU99A | 0.766 | 0.839 | 0.838 | 0.553 | 0.662 | 0.285 | 0.435 | 0.371 |  | 0.196 | 0.892 | 0.837 | 0.965 | 0.373 | 0.235
5 | LXF-289 | 0.968 | 0.944 | 0.984 |  | 0.994 | 1.04 | 1.04 | 1.13 | 0.731 | 1.04 | 0.515 | 0.527 | 0.541 | 0.392 | 0.0531
6 | NCI-H23 | 1.04 | 1.06 | 0.924 | 0.949 | 1 | 0.239 | 0.205 | 0.215 | 0.254 | 0.23 | 0.921 | 0.752 | 0.795 | 0.61 | 0.171
